From US6908884B2, “Benzazolonylcarbonylcyclohexenones and their use as herbicides” (BASF Aktiengesellschaft, priority 2000, dated 2005)

Tests used:
AMARE = experiment: greenhouse post-emergence herbicidal test; format: in vivo, redroot pigweed; details: 125 or 250 g/ha (a.s.)
Excerpt: (§1) The seeds of the test plants were sown separately for each species. For the post-emergence treatment, the test plants were first grown to a plant height of from 3 to 15 cm, depending on the plant habit, and only then treated with the active compounds which had been suspended or emulsified in water. To this end, the test plants were either sown directly and grown in the same containers, or they were first grown separately as seedlings and transplanted into the test containers a few days prior to treatment. The rate of application for the post-emergence treatment was 250, 125, 62.5, 31.3 and/or 15.6 g/ha of active substance (a.s.). Depending on the species, the plants were kept at from 10 to 25° C., or 20-35° C., respectively. The test period extended over 2 to 4 weeks. During this time, the plants were tended, and their response to the individual treatments was evaluated. Evaluation was carried out using a scale of from 0 to 100. 100 means no emergence of the plants, or complete destruction of at least the aerial parts, and 0 means no damage, or normal course of growth. A damage of at least 95% corresponds to very good herbicidal action. The plants used in the greenhouse experiments were of the following species: [table]

LAMAM = experiment: greenhouse post-emergence herbicidal test; format: in vivo, henbit; details: 125 or 62.5 g/ha (a.s.)
Excerpt: as §1

MATIN = experiment: greenhouse post-emergence herbicidal test; format: in vivo, chamomile, false; details: 125 or 62.5 g/ha (a.s.)
Excerpt: as §1

SINAL = experiment: greenhouse post-emergence herbicidal test; format: in vivo, white mustard; details: 125 or 62.5 g/ha (a.s.)
Excerpt: as §1

ABUTH = experiment: greenhouse post-emergence herbicidal test; format: in vivo, velvet leaf; details: 125 or 250 g/ha (a.s.)
Excerpt: as §1

PHBPU = experiment: greenhouse post-emergence herbicidal test; format: in vivo, morning glory, common
Excerpt: as §1, with “The rate of application for the post-emergence treatment was 250, 125, 62.5, 31.3 and/or 15.6 g/ha of active substance (a.s.).” left out

SETFA = experiment: greenhouse post-emergence herbicidal test; format: in vivo, giant foxtail; details: 125 or 250 g/ha (a.s.)
Excerpt: as §1

CHEAL = experiment: greenhouse post-emergence herbicidal test; format: in vivo, lambs' quarters (goose-foot)
Excerpt: as §1, with “The rate of application for the post-emergence treatment was 250, 125, 62.5, 31.3 and/or 15.6 g/ha of active substance (a.s.).” left out

ECHCG = experiment: greenhouse post-emergence herbicidal test; format: in vivo, barnyard grass
Excerpt: as §1, with “The rate of application for the post-emergence treatment was 250, 125, 62.5, 31.3 and/or 15.6 g/ha of active substance (a.s.).” left out

POLPE = experiment: greenhouse post-emergence herbicidal test; format: in vivo, lady's thumb; details: 31.3 g/ha (a.s.), read-out: herbicidal action against POLPE
Excerpt: as §1

BRAPL = experiment: greenhouse post-emergence herbicidal test; format: in vivo, marmalade grass; details: 125 or 250 g/ha (a.s.)
Excerpt: as §1

CCCCn1c(=O)oc2ccc(C(=O)C3=C(O)CCCC3=O)c(C)c21 [Compound I-1a.6]
herbicidal action against AMARE (AMARE): very good herbicidal action (A damage of at least 95% corresponds to very good herbicidal action)

C=CCn1c(=O)oc2ccc(C(=O)C3=C(O)CCCC3=O)c(C)c21 [Compound I-1a.29]
herbicidal action against AMARE (AMARE): very good herbicidal action (A damage of at least 95% corresponds to very good herbicidal action)

Cc1c(C(=O)C2=C(O)CCCC2=O)ccc2sc(=O)n(C)c12 [Compound I-1a.1129, 3,4-dimethyl-5-(1′,3′-cyclohexanedion-2′-yl)carbonylbenzothiazol-2-one]
herbicidal action against LAMAM (LAMAM): very good herbicidal action (A damage of at least 95% corresponds to very good herbicidal action) | herbicidal action against MATIN (MATIN): very good herbicidal action (A damage of at least 95% corresponds to very good herbicidal action) | herbicidal action against SINAL (SINAL): very good herbicidal action (A damage of at least 95% corresponds to very good herbicidal action)

CCn1c(=O)sc2ccc(C(=O)C3=C(O)CCCC3=O)c(C)c21 [Compound I-1a.1131]
herbicidal action against ABUTH (ABUTH): very good herbicidal action (A damage of at least 95% corresponds to very good herbicidal action)

Cc1c(C(=O)C2=C(O)CC(C)(C)CC2=O)ccc2sc(=O)n(C)c12 [Compound I-1c.1129, 3,4-dimethyl-5-(5′,5′-dimethyl-1′,3′-cyclohexanedion-2′-yl)-carbonylbenzothiazol-2-one]
herbicidal action against PHBPU (PHBPU; 125 or 62.5 g/ha (a.s.)): very good herbicidal action (A damage of at least 95% corresponds to very good herbicidal action)

CCn1c(=O)sc2ccc(C(=O)C3=C(O)CC(C)(C)CC3=O)c(C)c21 [Compound I-1c.1131]
herbicidal action against SETFA (SETFA): very good herbicidal action (A damage of at least 95% corresponds to very good herbicidal action)

Cc1c(C(=O)C2=C(O)C(C)(C)C(=O)C(C)(C)C2=O)ccc2sc(=O)n(C)c12 [Compound I-1d.1129, 3,4-dimethyl-5-(4′,4′,6′,6′-tetramethyl-1′,3′,5′-cyclohexane-trion-2′-yl)-carbonylbenzothiazol-2-one]
herbicidal action against CHEAL (CHEAL; 16.5 g/ha of a.s.): good to very good herbicidal action | pest or weed control at 31.3 g/ha (CHEAL; Chenopodium album, 31.3 g/ha (a.s.), read-out: herbicidal action against CHEAL): ≥ 95% | herbicidal action against ECHCG (ECHCG; 16.5 g/ha of a.s.): good to very good herbicidal action | herbicidal action against ECHCG (ECHCG; 31.3 g/ha (a.s.)): good to very good herbicidal action | herbicidal action against PHBPU (PHBPU; 16.5 g/ha of a.s.): very good herbicidal action (A damage of at least 95% corresponds to very good herbicidal action) | herbicidal action against PHBPU (PHBPU; 31.3 g/ha (a.s.)): very good herbicidal action (A damage of at least 95% corresponds to very good herbicidal action) | pest or weed control at 31.3 g/ha (POLPE): ≥ 95%

CCn1c(=O)sc2ccc(C(=O)C3=C(O)C(C)(C)C(=O)C(C)(C)C3=O)c(C)c21 [Compound I-1d.1131]
herbicidal action against ABUTH (ABUTH): very good herbicidal action (A damage of at least 95% corresponds to very good herbicidal action) | herbicidal action against AMARE (AMARE): very good herbicidal action (A damage of at least 95% corresponds to very good herbicidal action) | herbicidal action against SETFA (SETFA): very good herbicidal action (A damage of at least 95% corresponds to very good herbicidal action)

CCCCn1c(=O)sc2ccc(C(=O)C3=C(O)C(C)(C)C(=O)C(C)(C)C3=O)c(C)c21 [Compound I-1d.1134]
herbicidal action against ABUTH (ABUTH): very good herbicidal action (A damage of at least 95% corresponds to very good herbicidal action) | herbicidal action against AMARE (AMARE): very good herbicidal action (A damage of at least 95% corresponds to very good herbicidal action)

CCn1c(=O)sc2ccc(C(=O)C3=C(O)C4CCC(C4)C3=O)c(C)c21 (centres unmarked) [Compound I-1x.1131]
herbicidal action against BRAPL (BRAPL): very good herbicidal action (A damage of at least 95% corresponds to very good herbicidal action) | herbicidal action against SETFA (SETFA): very good herbicidal action (A damage of at least 95% corresponds to very good herbicidal action)

CCCCn1c(=O)sc2ccc(C(=O)C3=C(O)C4CCC(C4)C3=O)c(C)c21 (centres unmarked) [Compound I-1x.1134]
herbicidal action against ABUTH (ABUTH): very good herbicidal action (A damage of at least 95% corresponds to very good herbicidal action) | herbicidal action against SETFA (SETFA): very good herbicidal action (A damage of at least 95% corresponds to very good herbicidal action)

Cc1c(C(=O)C2=C(O)C3CCC(C3)C2=O)ccc2sc(=O)n(C)c12 (centres unmarked) [Example 4]
melting point: 101 to 110 °C

C=CCn1c(=O)sc2ccc(C(=O)C3=C(O)CC(C)(C)CC3=O)c(C)c21 [Example 5]
melting point: 143 to 150 °C

Cc1c(C(=O)C2=C(O)CCCC2=O)ccc2oc(=O)n(C)c12 [Example 6]
melting point: 207 to 209 °C

Cc1c(C(=O)C2=C(O)CC(C)(C)CC2=O)ccc2oc(=O)n(C)c12 [Example 7]
melting point: 139 to 143 °C

CCCCn1c(=O)oc2ccc(C(=O)C3=C(O)CC(C)(C)CC3=O)c(C)c21 [Example 10]
melting point: 115 to 116 °C

CCn1c(=O)sc2ccc(C(=O)C3=C(n4cccn4)CC(C)(C)CC3=O)c(C)c21 [Example 21]
melting point: 150 to 151 °C

CCCn1c(=O)sc2ccc(C(=O)C3=C(O)CC(C)(C)CC3=O)c(C)c21 [Example 25]
melting point: 129 to 135 °C

CCCn1c(=O)oc2ccc(C(=O)C3=C(O)CC(C)(C)CC3=O)c(C)c21 [Example 29]
melting point: 189 to 193 °C

Cc1c(C(=O)C2=C(O)CC(C)(C)CC2=O)ccc2sc(=O)n(Cc3ccccc3)c12 [Example 32]
melting point: 161 to 166 °C

CC#CCn1c(=O)sc2ccc(C(=O)C3=C(O)CC(C)(C)CC3=O)c(C)c21 [Example 33]
melting point: 147 to 149 °C

C=CCCn1c(=O)sc2ccc(C(=O)C3=C(O)C4CCC(C4)C3=O)c(C)c21 (centres unmarked) [Example 40]
melting point: 129 to 132 °C
